Laboratory results from patent publication US6979686B1, “Substituted pyrazoles as p38 kinase inhibitors” (Pharmacia Corporation, priority 2001, dated 2005).
Read-outs that look alike come from different tables or passages of the source.

Biological target: T1, human p38 kinase alpha (Homo sapiens, UniProt Q16539)
T1 construct: GST (N, cleaved yes); made in house; host or cells: E. coli DH10B
Test: p38 kinase in vitro assay, phosphorylation of biotinylated PHAS-I with 32P-ATP
Format: biochemical

[1] = Table 8, 1% DMSO, read-out: p38α Kinase Assay IC50
[2] = in vitro P38-alpha kinase, read-out: P38 alpha kinase IC50
[3] = in vitro P38-alpha kinase inhibition, read-out: P38 alpha kinase IC50

T1 sequence (Q16539 whole entry): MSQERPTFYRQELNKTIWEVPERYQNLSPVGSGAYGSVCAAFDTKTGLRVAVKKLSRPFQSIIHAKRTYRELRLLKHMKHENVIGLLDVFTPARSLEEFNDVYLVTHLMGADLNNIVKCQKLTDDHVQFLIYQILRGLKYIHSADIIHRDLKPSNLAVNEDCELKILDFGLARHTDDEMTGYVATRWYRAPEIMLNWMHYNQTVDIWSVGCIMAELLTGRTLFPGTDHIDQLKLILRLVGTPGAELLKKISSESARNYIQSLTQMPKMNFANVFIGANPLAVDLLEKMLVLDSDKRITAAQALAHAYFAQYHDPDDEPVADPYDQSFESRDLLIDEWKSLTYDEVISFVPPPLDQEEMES

Row | SMILES | IC50 [2] | IC50 [3] | also measured
1 | O=C(NCCc1[nH]nc(-c2ccc(F)cc2)c1-c1ccncc1)C1CCCC1 [Example B-1004] | – | – | P38 alpha kinase % inhib @ conc. (uM) (@ 1.0 uM): 79.0% @
2 | Fc1ccc(-c2[nH]ncc2-c2ccnc(Nc3ccccc3F)n2)cc1 [Example A-325, N-(2-fluorophenyl)-4-[3-(4-fluorophenyl)-1H-pyrazol-4-yl]-2-pyrimidinamine] | – | – | IC50 [1]: 21 nM
3 | Cc1c(-c2ccncc2)c(-c2ccc(F)cc2)nn1CC(=O)NCCCSC1CCCCC1 [Example B-2306] | 5880 nM | – | –
4 | O=C(NC(Cc1ccccc1)c1[nH]nc(-c2ccc(F)cc2)c1-c1ccncc1)c1ccno1 (stereo not shown) [Example B-0840] | – | 630 nM | –
5 | Cc1c(-c2ccncc2)c(-c2ccc(F)cc2)nn1CC(=O)N1CCSC1c1ccco1 (stereo not shown) [Example B-2409] | – | – | P38 alpha kinase IC50, uM or % inhib @ conc. (uM): % inhib (@ 10.0 uM): 78.0% @
6 | COCC(=O)NC(Cc1ccccc1)c1[nH]nc(-c2ccc(F)cc2)c1-c1ccncc1 (stereo not shown) [Example B-0842] | – | 740 nM | –
7 | Cc1c(-c2ccncc2)c(-c2ccc(F)cc2)nn1CC(=O)NC1CCN(CCc2c[nH]c3ccccc23)CC1 [Example B-2355] | – | – | P38 alpha kinase % inhib @ conc. (@ 10.0 uM): 84.0% @
8 | Cc1cccc(C)c1NC(=O)NC(C)c1[nH]nc(-c2ccc(F)cc2)c1-c1ccncc1 (stereo not shown) [Example B-0588] | – | 12800 nM | –
9 | CC(C)NC(=O)NCCCc1[nH]nc(-c2ccc(F)cc2)c1-c1ccncc1 [Example B-1206] | – | – | P38 alpha kinase % inhib @ conc. (@ 1.0 uM): 81.0% @
10 | COc1ccc(NC(=O)NC(Cc2ccccc2)c2[nH]nc(-c3ccc(F)cc3)c2-c2ccncc2)cc1 (stereo not shown) [Example B-0741] | – | 26000 nM | –
11 | CC(NS(=O)(=O)Cc1ccccc1[N+](=O)[O-])c1[nH]nc(-c2ccc(F)cc2)c1-c1ccncc1 (stereo not shown) [Example B-0619] | – | < 100 nM | –
12 | O=C(NCCCc1[nH]nc(-c2ccc(F)cc2)c1-c1ccncc1)c1cccc(Cl)c1Cl [Example B-1333] | 450 nM | – | –
13 | CC(NC(=O)c1c(F)cc(F)cc1F)c1[nH]nc(-c2ccc(F)cc2)c1-c1ccncc1 (stereo not shown) [Example B-0684] | – | 540 nM | –
14 | O=C(NCCCc1[nH]nc(-c2ccc(F)cc2)c1-c1ccncc1)c1cccnc1 [Example B-1182] | – | – | P38 alpha kinase % inhib @ conc. (uM) (@ 1.0 uM): 72.0% @
15 | Cc1c(-c2ccncc2)c(-c2ccc(F)cc2)nn1CC(=O)NCCCN1CCCC1 [Example B-2307] | 2290 nM | – | –
16 | O=C(NCc1ccccc1)NC(Cc1ccccc1)c1[nH]nc(-c2ccc(F)cc2)c1-c1ccncc1 (stereo not shown) [Example B-0725] | – | 9700 nM | –
17 | Cc1c(-c2ccncc2)c(-c2ccc(F)cc2)nn1CC(=O)NCC(c1ccccc1)c1ccccc1 [Example B-2277] | 14900 nM | – | –

Row | SMILES | IC50 [2] | IC50 [3] | also measured
18 | COC(=O)N1CCN(c2[nH]nc(-c3ccc(Cl)cc3)c2-c2ccncc2)CC1 [Example A-319, methyl 4-[5-(4-chlorophenyl)-4-(4-pyridinyl)-1H-pyrazol-3-yl]-1-piperazinecarboxylate, monohydrate] | – | – | IC50 [1]: 6060 nM
19 | Cc1c(-c2ccncc2)c(-c2ccc(F)cc2)nn1CC(=O)N1CCOCC1 [Example B-2366] | – | – | P38 alpha kinase % inhib @ conc. (@ 10.0 uM): 70.0% @
20 | O=C(c1ccncc1)N1CCC(c2[nH]nc(-c3ccc(F)cc3)c2-c2ccncc2)CC1 [Example B-1373] | 16 nM | – | –
21 | CC(NC(=O)c1cccnc1)c1[nH]nc(-c2ccc(F)cc2)c1-c1ccncc1 (stereo not shown) [Example B-0554] | – | 2580 nM | –
22 | Cc1cccc(Cl)c1S(=O)(=O)NC(C)c1[nH]nc(-c2ccc(F)cc2)c1-c1ccncc1 (stereo not shown) [Example B-0644] | – | 58 nM | –
23 | O=C(NCCc1ccccc1)NC(Cc1ccccc1)c1[nH]nc(-c2ccc(F)cc2)c1-c1ccncc1 (stereo not shown) [Example B-0783] | – | 8000 nM | –
24 | CC(C)C(=O)N1CCC(c2[nH]nc(-c3ccc(F)cc3)c2-c2ccncc2)CC1 [Example B-1361] | 30 nM | – | –
25 | CCCCC(=O)NCc1[nH]nc(-c2ccc(F)cc2)c1-c1ccncc1 [Example B-0014] | – | – | inhibition at 1 µM (@ 1.0 uM, read-out: P38 alpha kinase % inhib @ conc.): 79%
26 | O=S(=O)(c1c(Cl)cccc1Cl)N1CCC(c2[nH]nc(-c3ccc(F)cc3)c2-c2ccncc2)CC1 [Example B-1451] | 2880 nM | – | –
27 | O=S(=O)(NCCCc1[nH]nc(-c2ccc(F)cc2)c1-c1ccncc1)c1ccc(F)cc1Cl [Example B-1254] | 160 nM | – | –
28 | CCCCOc1ccc(S(=O)(=O)NCCCc2[nH]nc(-c3ccc(F)cc3)c2-c2ccncc2)cc1 [Example B-1261] | 740 nM | – | –
29 | Cc1c(-c2ccncc2)c(-c2ccc(F)cc2)nn1CC(=O)Nc1ccccc1C(C)C [Example B-2433] | – | – | P38 alpha kinase IC50, uM or % inhib @ conc. (uM): % inhib (@ 10.0 uM): 94.0% @
30 | O=S(=O)(NC(Cc1ccccc1)c1[nH]nc(-c2ccc(F)cc2)c1-c1ccncc1)c1ccccc1 (stereo not shown) [Example B-0753] | – | 370 nM | –
31 | CN(C)[C@H]1CC[C@@H](c2[nH]nc(-c3ccc(C(F)(F)F)cc3)c2-c2ccncc2)CC1 [Example C-102, 5-cis-(4-N,N-DIMETHYLAMINOCYCLOHEXYL)-4-(4-PYRIDYL)-3-[4-(TRIFLUOROMETHYL)PHENYL]PYRAZOLE] | – | – | IC50 (read-out: P38 alpha kinase IC50): 290 nM
32 | CCCCS(=O)(=O)NCCc1[nH]nc(-c2ccc(F)cc2)c1-c1ccncc1 [Example B-1022] | – | – | P38 alpha kinase % inhib @ conc. (uM) (@ 1.0 uM): 84.0% @
33 | O=S(=O)(NCCCc1[nH]nc(-c2ccc(F)cc2)c1-c1ccncc1)c1c(Cl)cccc1Cl [Example B-1258] | 70 nM | – | –
34 | O=S(=O)(NCCCc1[nH]nc(-c2ccc(F)cc2)c1-c1ccncc1)c1ccc(Br)cc1 [Example B-1237] | 220 nM | – | –
